This note sets out measurements from US8193223B2, “1,2,3-triazole derivatives as sigma receptor inhibitors” (Laboratorios Del Dr. Esteve, S.A., priority 2006, dated 2012).

The target in the assay is T1, sigma-1 receptor (Cavia porcellus, UniProt Q60492).
T1 construct: from tissue; host or cells: guinea pig brain membranes
The assay can be described thus: [3H](+)-pentazocine binding assay for the sigma-1 receptor in guinea pig brain membranes. The settings on record: [3H](+)-pentazocine 0.5 nM; for Sigma-1 Inhibition percent (0.01 μM): compound 0.01 μM; for Sigma-1 Inhibition percent (0.1 μM): compound 0.1 μM. On the procedure: Some of the compounds synthesized according to the procedures described above were tested for their activity as sigma-1 inhibitors. The following protocol was followed:
Brain membrane preparation and binding assays for the […] were performed as described (DeHaven-Hudkins et al., 1992) with some modifications. In brief, guinea pig brains were homogenized in 10 vols. (w/v) of Tris-HCl 50 mM 0.32 M sucrose, pH 7.4, with a Kinematica Polytron PT 3000 at 15000 r.p.m. for 30 s. The homogenate was centrifuged at 1000 g for 10 min at 4° C. and the supernatants collected and centrifuged again at 48000 g for 15 min at 4° C. The pellet was resuspended in 10 volumes of Tris-HCl buffer (50 mM, pH 7.4), incubated at 37° C. for 30 min, and centrifuged at 48000 g for 20 min at 4° C. Following this, the pellet was resuspended in fresh Tris-HCl buffer (50 mM, pH 7.4) and stored on ice until use.
Each assay tube contained 10 μL of [^3H](+)-pentazocine (final concentration of 0.5 nM), 900 μL of the tissue suspension to a final assay volume of 1 mL and a final tissue concentration of approximately 30 mg tissue net weight/mL. Non-specific binding was defined by addition of a final concentration of 1 μM haloperidol. All tubes were incubated at 37° C. for 150 min before termination of the reaction by rapid filtration over Schleicher & Schuell GF 3362 glass fibre filters [previously soaked in a solution of 0.5% polyethylenimine for at least 1 h]. Filters were then washed with four times with 4 mL of cold Tris-HCl buffer (50 mM, pH 7.4). Following addition of scintillation cocktail, the samples were allowed to equilibrate overnight. The amount of bound radioactivity was determined by liquid scintillation spectrometry using a Wallac Winspectral 1414 liquid scintillation counter. Protein concentrations were determined by the method of Lowry et al. (1951).

T1 sequence (Q60492 whole entry): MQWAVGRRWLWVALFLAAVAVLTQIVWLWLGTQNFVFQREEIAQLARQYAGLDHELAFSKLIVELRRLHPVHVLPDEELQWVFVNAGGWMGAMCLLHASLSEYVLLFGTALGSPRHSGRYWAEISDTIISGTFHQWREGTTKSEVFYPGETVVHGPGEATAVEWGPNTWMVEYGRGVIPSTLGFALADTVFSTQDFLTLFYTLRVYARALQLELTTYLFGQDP

On to `Cc1nn(CCCN2CCCCC2)nc1-c1ccccc1` [compound 19], for which the “Sigma-1 Inhibition percent (0.01 μM)” value was found to be 31.2 and the “Sigma-1 Inhibition percent (0.1 μM)” value amounted to 78.5.
As to `Fc1cc(Br)ccc1-c1cnn(CCCN2CCCCC2)n1` [compound 21], the “Sigma-1 Inhibition percent (0.01 μM)” value is 25.8 and the “Sigma-1 Inhibition percent (0.1 μM)” value was 83.4.
Take `Clc1ccc(-c2nn(CCCCN3CCCCC3)nc2-c2ccccc2)cc1` [compound 10]: the “Sigma-1 Inhibition percent (0.01 μM)” value worked out at 26.1 and the “Sigma-1 Inhibition percent (0.1 μM)” value was 59.1.
The like results for `Clc1ccc(-c2nn(CCCN3CCCCCC3)nc2-c2ccccc2)cc1` [compound 6] were, in that order, 36.5 and 52.5.
In the case of `c1ccc(-c2cnn(CCCN3CCCCC3)n2)cc1` [compound 20], the “Sigma-1 Inhibition percent (0.01 μM)” value is 43.6 and the “Sigma-1 Inhibition percent (0.1 μM)” value was found to be 82.2.
